Tested on: KP-1/VEGF cells
Test: Effect on in vivo angiogenesis induced by KP-1/VEGF (chamber transplanted in mouse dorsal air sac, 51Cr-labelled blood cells)
Conditions: for In vivo angiogenesis inhibitory effect: =(X−B)/(A−B)×100, A control, B collagen, X administered group; for In vivo angiogenesis-inducing activity (volume of blood vessel): C57BL/6N mouse, KP-1/VEGF chamber, four days after transplantation
Method: 3×10^6 cells/0.17 ml suspension of KP-1/VEGF cells was prepared using a collagen solution. In a chamber formed by adhering 0.45-μm Durapore filter membrane (Millipore) to a chamber ring (Millipore), 0.17 ml of the suspension was injected through the injection inlet and sealed. An air sac of about 10 ml was formed on dorsal subcutaneous portion of a 6-week-old female C57BL/6N mouse under anesthesia and the chamber enclosing the cells therein was transplanted in the air sac.
From the day of transplantation, ZD6474 as a VEGFR kinase inhibitor and ZD1839(Iressa) as an EGFR kinase inhibitor were each orally administered in dosage of 25, 50 or 100 mg/kg once a day for 4 days.
Four days after the transplantation, 2,500,000 cpm/ml of blood cell suspension prepared by labeling the cells with sodium chromate (^51Cr) (Amersham Pharmacia) was injected in an amount of 0.2 ml each through the tail vein of the chamber-transplanted mouse, and then the skin portion contacting the chamber was cut out and the radioactivity thereof was measured by use of a γ-counter. From the measured radioactivity, the amount of blood (volume of blood vessel) was calculated and was used as an index of in vivo angiogenesis-inducing activity.
Further, providing that the in vivo angiogenesis-inducing activity of control is A, the in vivo angiogenesis-inducing activity of collagen is B, and the in vivo angiogenesis-inducing activity of each administered group is X, in vivo angiogenesis inhibitory effect was obtained by the following equation. In vivo angiogenesis inhibitory effect (%)

[1] = 25 mg/kg orally once a day for 4 days
[2] = 50 mg/kg orally once a day for 4 days
[3] = 100 mg/kg orally once a day for 4 days

SMILES | In vivo angiogenesis inhibitory effect [1] | In vivo angiogenesis-inducing activity (volume of blood vessel) [1] | In vivo angiogenesis inhibitory effect [2] | In vivo angiogenesis-inducing activity (volume of blood vessel) [2] | In vivo angiogenesis inhibitory effect [3] | In vivo angiogenesis-inducing activity (volume of blood vessel) [3]
COc1cc2c(Nc3ccc(Br)cc3F)ncnc2cc1OCC1CCN(C)CC1 [ZD6474] | 68.0% | 2.56 ± 0.26 µL | 40.8% | 2.18 ± 0.38 µL | −10.9% | 1.47 ± 0.40 µL
COc1cc2ncnc(Nc3ccc(F)c(Cl)c3)c2cc1OCCCN1CCOCC1 [ZD1839] | – | 2.75 ± 0.66 µL | – | 2.77 ± 0.47 µL | – | 2.76 ± 0.73 µL
